Laboratory results reported in PubChem BioAssay (NCI).
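Values below derive from 48-hour exposures of cells grown in 96-well plates, with endpoints linearly interpolated between the two concentrations bracketing the appropriate inhibition level. At the GI50, growth is halved. The concentration for full growth arrest is given as TGI.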

Experiments:
Experiment in all cases: NCI-60 cell line screen, 48 h
[1] = test system: CAKI-1 renal
[2] = test system: CCRF-CEM leukemia
[3] = test system: HT29 colon
[4] = test system: LOX IMVI melanoma
[5] = test system: MDA-MB-231 breast
[6] = test system: PC-3 prostate
[7] = test system: SK-MEL-2 melanoma
[8] = test system: T-47D breast
[9] = test system: SR leukemia

Row | Compound | TGI [1] | TGI [2] | TGI [3] | TGI [4] | TGI [5] | TGI [6] | TGI [7] | TGI [8] | GI50 [1] | GI50 [2] | GI50 [3] | GI50 [4] | GI50 [5] | GI50 [6] | GI50 [7] | GI50 [8] | TGI [9]
1 | CC1=NNC(=O)C1C1CC(c2c[nH]c3ccccc23)=NN=C1Cl (centres undefined) | > 100 µM | 69.2 µM | > 100 µM | > 100 µM | > 100 µM | > 100 µM | > 100 µM | > 100 µM |  |  |  |  |  |  |  |  | 
2 | COc1ccc(-n2nc(C)c3c(Nc4ccc(NC(=O)Nc5ccc(Cl)c(C(F)(F)F)c5)cc4)ncnc32)cc1 | 3.51 µM | > 100 µM | 4.17 µM | 2.67 µM | 3.32 µM | 3.95 µM | 4.43 µM | 5.41 µM | 1.51 µM | 2.2 µM | 1.8 µM | 1.34 µM | 1.47 µM | 1.16 µM | 2.23 µM | 1.71 µM | 
3 | O=[N+]([O-])c1ccc2c(c1)c(N=NC(=S)Nc1ccc(Cl)cc1)c(O)n2CN1CCOCC1 | 12.4 µM | 28 µM |  | 23.8 µM | 30.6 µM | 21.9 µM | 26.3 µM | 20.8 µM |  |  |  |  |  |  |  |  | 8.44 µM
4 | CC1(C)CC(C#Cc2ccccc2)CC(C)(C)N1O | 61.3 µM | > 100 µM | 29.4 µM | 29.9 µM | 29.8 µM | 29.4 µM | 43.6 µM | 63.8 µM |  |  |  |  |  |  |  |  | > 100 µM
5 | O=S1(=O)C[C@@H](NCc2ccccc2)[C@H](NCc2ccccc2)C1 | > 100 µM | > 100 µM | > 100 µM | > 100 µM | > 100 µM | > 100 µM | > 100 µM | > 100 µM |  |  |  |  |  |  |  |  | > 100 µM
6 | CN1N=C(c2ccncc2)OC1c1ccccc1F (centres undefined) |  | > 100 µM | > 100 µM | > 100 µM | > 100 µM | > 100 µM | > 100 µM | > 100 µM |  |  |  |  |  |  |  |  | 
7 | CCOC(=O)C1CCC(=O)N1C(=O)c1ccccc1Cl (centres undefined) | > 100 µM | > 100 µM | > 100 µM | > 100 µM | > 100 µM | > 100 µM |  | > 100 µM |  |  |  |  |  |  |  |  | > 100 µM
8 | O=C1c2cccc(O)c2C(=O)c2c(OC3OC(CO)C(O)C(O)C3O)cccc21 (centres undefined) | > 100 µM |  | > 100 µM | > 100 µM | > 100 µM | 82 µM | > 100 µM | 49.1 µM |  |  |  |  |  |  |  |  | > 100 µM
9 | C[C@H]1OC(=O)[C@@H]2N=NN(Cc3ccccc3)[C@H]12 | > 100 µM |  | > 100 µM |  | > 100 µM | > 100 µM | > 100 µM | > 100 µM |  |  |  |  |  |  |  |  | > 100 µM
10 | CN1CCN(C2=C(Cl)C3(OCCS3)C(F)(F)C2(F)F)CC1 (centres undefined) | > 100 µM | > 100 µM | > 100 µM | > 100 µM | > 100 µM |  | > 100 µM | > 100 µM |  |  |  |  |  |  |  |  | > 100 µM
11 | CN(C)c1cccc2c1C(=O)C=CC21c2ccc(N(C)C)c3c(N(C)C)ccc(c23)C(c2ccccc2)C1c1ccccc1 (centres undefined) | 17.2 µM | 37.7 µM | 44.9 µM | 33.7 µM | 28.9 µM | 30.2 µM |  |  |  |  |  |  |  |  |  |  | 55.1 µM
12 | CC#CC(O)(C(=O)OC1CC(C)N(C)C(C)(C)C1)C1CCCC1 (centres undefined) | > 100 µM | > 100 µM | > 100 µM | > 100 µM | > 100 µM | > 100 µM |  | > 100 µM |  |  |  |  |  |  |  |  | > 100 µM
13 | O=C(CC(C(=O)c1ccco1)c1ccco1)c1ccco1 (centres undefined) | > 100 µM | > 100 µM | > 100 µM | > 100 µM | > 100 µM |  |  | > 100 µM |  |  |  |  |  |  |  |  | > 100 µM
14 | C/C(=C\CO)CC/C=C(\C)CNc1ccc([N+](=O)[O-])cc1 | > 100 µM |  | > 100 µM | > 100 µM | > 100 µM | 66.2 µM | 79.5 µM | 80 µM |  |  |  |  |  |  |  |  | 27.1 µM
15 | Nc1ccc(-c2nn3c(COc4ccc(Cl)cc4)nnc3s2)cc1 | > 100 µM | > 100 µM | > 100 µM | > 100 µM | > 100 µM | > 100 µM | > 100 µM | > 100 µM |  | 10 µM |  |  |  |  |  |  | 
16 | COc1ccc(NC(C)c2ccncc2)cc1 (centres undefined) | > 100 µM | > 100 µM | > 100 µM | > 100 µM | > 100 µM | > 100 µM | > 100 µM | > 100 µM |  |  |  |  |  |  |  |  | 
17 | COC(=O)[C@H](Cc1ccccc1)NC(=O)N(CCC#N)CCN(C(=O)N[C@@H](Cc1ccccc1)C(=O)OC)c1ccccc1 | 41 µM | 87 µM |  | 41.3 µM | 71 µM | > 100 µM | 39.3 µM | 41.6 µM |  |  |  |  |  |  |  |  | 
18 | c1ccc(C2CC(=NC3CCCCC3)Nc3ccccc3N2)cc1 (centres undefined) | > 100 µM | > 100 µM | > 100 µM | 55.2 µM | > 100 µM | > 100 µM | > 100 µM |  |  |  |  |  |  |  |  |  | 
19 | COc1ccc(/C=N/n2c(C)nc3c(sc(=S)n3-c3ccccc3)c2=O)cc1 |  | 54.2 µM | > 100 µM |  |  |  |  |  |  |  |  |  |  |  |  |  | > 100 µM
20 | O=C1OC(c2ccccc2)N(C(=O)c2ccccc2)C1Cc1ccc(OCc2ccccc2)cc1 (centres undefined) |  | > 100 µM |  | > 100 µM | 23.9 µM | > 100 µM | > 100 µM | > 100 µM |  |  |  |  |  |  |  |  | > 100 µM
21 | CC1(C)N=C2C(=O)c3c([nH]c4ccccc34)[C@]3(C)CCC1CC23 (some centres undefined) | > 6.25 µM | > 6.25 µM | > 6.25 µM | > 6.25 µM | > 6.25 µM | > 6.25 µM | > 6.25 µM |  |  |  |  |  |  |  |  |  | > 6.25 µM
22 | COc1ccc2c(c1)c(=O)c1c(NCCNCCO)ccc3c(=O)n(CCN(C)C)c(=O)n2c31 | 2.79 µM | > 100 µM | 0.425 µM | 1.11 µM | 0.508 µM | 0.624 µM | 0.634 µM | 0.541 µM |  |  |  |  |  |  |  |  | 
23 | CC(=O)Oc1c(C)c(C)c2c(c1C)CCC(C)(CC(=O)OCCCCCCCCCCC[P+](c1ccccc1)(c1ccccc1)c1ccccc1)O2 (centres undefined) | 3.27 µM |  | 2.29 µM |  |  | 0.976 µM |  | 0.736 µM | 1.72 µM |  | 0.707 µM |  |  | 0.194 µM |  | 0.0727 µM | 
24 | COc1cc2[nH]c(-c3ccccc3)cc(=O)c2c(OC)c1OC |  | > 100 µM | > 100 µM | > 100 µM | > 100 µM | > 100 µM | > 100 µM | > 100 µM |  |  |  |  |  |  |  |  | > 100 µM
25 | COc1cc(/C=C2\CCC(C)/C(=C\c3cc(OC)c(OC)c(OC)c3)C2=O)cc(OC)c1OC (centres undefined) | 6.71 µM | 4.1 µM | 10.9 µM | > 100 µM | > 100 µM | 11.1 µM | 3.37 µM | > 100 µM |  |  |  |  |  |  |  |  | 
